Test results as given in patent publication US20040138285A1, “Chondrogenesis promoters” (priority 2001, published 2004).

What was measured:
[1] = tested on: rat articular chondrocytes; assay: Cartilage matrix production promoting effect of compound A and PD98059 (alcian blue staining), Example 2; type: cell-based; conditions: one week; for ratio of alcian blue positive cells (photomicrograph after alcian blue staining): compound A 2×10^−6 mol/L or PD98059 5×10^−5 mol/L alone, vs vehicle control (FIG. 7); for production of the cartilage matrix (alcian blue staining intensity, absorption at 595 nm): each agent alone (compound A 2×10^−6 mol/L; PD98059 5×10^−5 mol/L), vs vehicle control, p<0.05 (FIG. 8)
Experimental: A 5-week-old male SD rat (Charles River Japan Corp.) was euthanized, and thereafter the femur was removed therefrom, and the articular cartilage layer was stripped off from the knee joint surface of the femur with a scalpel. The articular cartilage obtained was treated with 0.15% trypsin (DIFCO Lab.)/0.05% EDTA (Nacalai Tesque, Inc.) at 37° C. for one hour, and thereafter the matrix was decomposed while being agitated at 37° C. in 0.15% collagenase (WORTHINGTON Corp.) for three hours, thereby obtaining a cell suspension. The cartilage cells obtained were seeded at the cell density of 20000 per well in a 24-well culturing plate (Falcon Corp.) coated with type I collagen (Nitta Gelatin Inc.) and were cultured in a Dulbecco's modified Eagle medium (Gibco) containing 10% fetal bovine serum (REHATUIN) and antibiotic-antimycotic (Gibco) (Calcif. Tissue Int. 19: 179-187, 1975). After achievement of the confluent state of cells, 50 μg/mL ascorbic acid (Wako Pure Chemical Industries) was added to the medium, and either or both of 2×10^−6 mol/L compound A and 2×10^−6 to 5×10^−5 mol/L compound with MEK1 inhibitory activity PD98059 (New England Biolab) were further added thereto, followed by culture for one week. 0.12% DMSO (JUNSEI CHEMICAL CO., LTD) was used as a solvent vehicle control. The medium was replaced every two to three days and the above agents were added every replacement.
After completion of the culture, the cell layer was fixed at room temperature in 4% paraformaldehyde solution (Wako Pure Chemical Industries) for two hours and then washed with distilled water and 5% acetic acid of pH 1.0, and thereafter the cartilage matrix was stained at room temperature with alcian blue of pH 1.0 (Wako Pure Chemical Industries) for two hours. The cell layer was washed with 5% acetic acid and distilled water and then dried, 6 mol/L guanidine hydrochloride (Nacalai Tesque, Inc.) was added to the cell layer to extract the dye therefrom, and absorption was measured at 595 nm with the Microplate reader (BioRad).

[2] = tested on: rat articular chondrocytes; assay: Cartilage matrix production promoting effect of compound A and U0126 (alcian blue staining, phase contrast morphology), Example 1; type: cell-based
Experimental: A 5-week-old male SD rat (Charles River Japan Corp.) was euthanized, and thereafter the femur was removed therefrom, and the articular cartilage layer was stripped off from the knee joint surface of the femur with a scalpel. The articular cartilage obtained was treated with 0.15% trypsin (DIFCO Lab.)/0.05% EDTA (KANTO KAGAKU CORP.) at 37° C. for one hour, and thereafter the matrix was decomposed while being agitated at 37° C. in 0.15% collagenase (WORTHINGTON Corp.) for three hours, thereby obtaining a cell suspension. […] 0.12% DMSO (Wako Pure Chemical Industries) was used as a solvent vehicle control. The medium was replaced every two to three days and the above agents were added every replacement.
After completion of the culture, the cell layer was fixed at room temperature in 4% paraformaldehyde solution (Wako Pure Chemical Industries) for two hours and then washed with distilled water and 5% acetic acid of pH 1.0, and thereafter the cartilage matrix was stained at room temperature with alcian blue of pH 1.0 (Wako Pure Chemical Industries) for two hours. The cell layer was washed with 5% acetic acid and distilled water and then dried, 6 mol/L guanidine hydrochloride (Nacalai Tesque, Inc.) was added to the cell layer to extract the dye therefrom, and the absorption was measured at 630 nm with a Microplate reader (BioRad).

SMILES | ratio of alcian blue positive cells (photomicrograph after alcian blue staining) [1] | production of the cartilage matrix (alcian blue staining intensity, absorption at 595 nm) [1] | production of the matrix and morphology of chondrocytes (phase contrast photomicrograph) ([2]; compound A 2×10^−6 mol/L alone, cultured one week, vs vehicle control 0.12% DMSO (FIG. 2)) | production of the cartilage matrix (alcian blue staining intensity, absorption at 630 nm) ([2]; each agent alone (compound A 5×10^−7 to 2×10^−6 mol/L; U0126 1×10^−7 to 1×10^−5 mol/L), one week, vs vehicle control, p<0.05 (FIGS. 5 and 6))
COc1cccc(-c2cc(=O)c3ccccc3o2)c1N [PD98059, reference compound] | the ratio of alcian blue positive cells increased | significantly promoted the production of the cartilage matrix |  | 
CCOC(CN1C(=O)[C@](CC(=O)Nc2ccc(C)cc2)(NC(=O)Nc2ccc(C)cc2)c2ccccc21)OCC [compound A] | the ratio of alcian blue positive cells increased | significantly promoted the production of the cartilage matrix | production of the matrix was enhanced | significantly promoted the production of the cartilage matrix
